The test addresses T1, TWIK-1* (K2P1.1/KCNK1, I293A/I294A trafficking mutant) (Homo sapiens, UniProt O00180, I293A/I294A).
T1 construct: full-length channel with mutated di-isoleucine endocytic retention motif (I293A/I294A), subcloned into pFAW, mRNA-injected Xenopus oocytes, giant excised inside-out patches; homodimer
T1 sequence (O00180 1-336 I293A/I294A): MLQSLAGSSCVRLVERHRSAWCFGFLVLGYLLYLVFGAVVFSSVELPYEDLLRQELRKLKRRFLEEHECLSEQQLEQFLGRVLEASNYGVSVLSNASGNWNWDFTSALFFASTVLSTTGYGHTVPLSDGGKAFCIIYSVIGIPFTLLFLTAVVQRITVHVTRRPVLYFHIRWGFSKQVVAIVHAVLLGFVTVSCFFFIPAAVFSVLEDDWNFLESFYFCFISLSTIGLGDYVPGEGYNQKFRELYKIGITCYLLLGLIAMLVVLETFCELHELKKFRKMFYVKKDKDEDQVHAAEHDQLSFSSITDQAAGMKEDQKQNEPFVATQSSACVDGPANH
Description: giant excised inside-out patch electrophysiology, Xenopus oocytes, Hill fit. The format is cell-based.

Drawing on doi:10.1101/735704v2, “Selectivity filter instability dominates the low intrinsic activity of the TWIK-1 K2P K^+ Channel” (biorxiv, 2019), this text covers IC50 for one molecule.

Structures are written as SMILES.

Take `CCCCC[N+](CCCCC)(CCCCC)CCCCC` [tetrapentylammonium]: half-maximal inhibition (IC50) required 3.3 ± 0.1 µM.
